Results as given in ChEMBL document CHEMBL1201862, “PubChem BioAssay data set” (2004).
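Interpolation was linear, between the two tested concentrations surrounding the appropriate level; five concentrations were tested over 48 hours in 96-well plates. GI50 marks 50% less growth.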 Active and inactive are the calls of the source. No stated cut-off is given here; in the data, active = GI50 up to about 1.1 µM and inactive = higher.

Key:
Assay in all cases: NCI-60 cell line screen, 48 h
A498 = system: A498
A549 = system: A549
CCRF-CEM = system: CCRF-CEM
COLO 205 = system: COLO 205
HCC 2998 = system: HCC 2998
HCT-116 = system: HCT-116
HOP-92 = system: HOP-92
OVCAR-5 = system: OVCAR-5
SF-268 = system: SF-268
SN12C = system: SN12C
SNB-19 = system: SNB-19
SNB-75 = system: SNB-75
UACC-257 = system: UACC-257
CAKI-1 = system: CAKI-1
NCI-H522 = system: NCI-H522
OVCAR-4 = system: OVCAR-4

Measured: GI50

Cc1nc(-n2nc(-c3ccccc3)cc2-c2ccccc2)sc1C(/C=C/c1ccc([N+](=O)[O-])cc1)=N/NC(=O)c1ccncc1
inactive: A498 49.3 µM | A549 30.3 µM | CCRF-CEM 7.6 µM | COLO 205 21.6 µM | HCC 2998 5.82 µM | HCT-116 9.12 µM | HOP-92 11.5 µM | OVCAR-5 53.1 µM | SF-268 20 µM | SN12C 24.2 µM | SNB-19 14 µM | SNB-75 22.9 µM | UACC-257 41.7 µM

COc1ccc2c(c1)[n+]([O-])c(-c1nc3ccccc3s1)c(N)[n+]2[O-]
inactive: A498 45.8 µM | A549 > 100 µM | CAKI-1 > 100 µM | COLO 205 36.5 µM | HCT-116 54.3 µM | HOP-92 > 100 µM | NCI-H522 51.3 µM | OVCAR-4 > 100 µM | OVCAR-5 > 100 µM | SN12C > 100 µM | SNB-19 > 100 µM | SNB-75 39.1 µM | UACC-257 63.5 µM

CCOC(=O)c1cc(/C=C/C(C)=C/C(=O)OC)oc1C
inactive: A549 > 100 µM | CAKI-1 > 100 µM | CCRF-CEM > 100 µM | COLO 205 > 100 µM | HCT-116 > 100 µM | HOP-92 > 100 µM | NCI-H522 45.6 µM | OVCAR-4 > 100 µM | OVCAR-5 > 100 µM | SF-268 > 100 µM | SNB-19 > 100 µM | SNB-75 > 100 µM | UACC-257 > 100 µM

C=C=C(C(=O)OC)[S+]([O-])c1ccccc1[N+](=O)[O-] (stereo unspecified)
inactive: A498 > 100 µM | A549 > 100 µM | CAKI-1 > 100 µM | CCRF-CEM 24.7 µM | COLO 205 > 100 µM | HCC 2998 > 100 µM | HCT-116 89.9 µM | NCI-H522 22.3 µM | OVCAR-4 > 100 µM | OVCAR-5 > 100 µM | SF-268 > 100 µM | SN12C > 100 µM | SNB-19 > 100 µM | SNB-75 > 100 µM | UACC-257 > 100 µM

CC(=O)CCCCO
inactive: A498 > 100 µM | A549 > 100 µM | CAKI-1 > 100 µM | CCRF-CEM > 100 µM | COLO 205 > 100 µM | HCT-116 > 100 µM | HOP-92 > 100 µM | NCI-H522 > 100 µM | OVCAR-4 > 100 µM | OVCAR-5 > 100 µM | SF-268 > 100 µM | SN12C > 100 µM | SNB-19 > 100 µM | SNB-75 > 100 µM | UACC-257 > 100 µM

O=C1C=CC2(C=C1)C[C@H](NC(=O)C(F)(F)F)C(=O)O2
inactive: A498 > 100 µM | A549 > 100 µM | CAKI-1 30.5 µM | CCRF-CEM 16.4 µM | COLO 205 29.6 µM | HCC 2998 46.9 µM | HCT-116 58.9 µM | NCI-H522 17.3 µM | OVCAR-4 > 100 µM | OVCAR-5 > 100 µM | SF-268 37.9 µM | SN12C 50 µM | SNB-19 > 100 µM | SNB-75 69 µM | UACC-257 34.8 µM

CCCc1c2c([nH]c(=O)c1C)C(=O)c1[nH]c(=O)c(C)c(CCC)c1C2=O
inactive: A498 > 100 µM | A549 23.7 µM | CCRF-CEM 21.7 µM | COLO 205 25.8 µM | HCC 2998 38.4 µM | HCT-116 3.01 µM | HOP-92 41 µM | OVCAR-4 12.2 µM | OVCAR-5 35.6 µM | SF-268 23 µM | SN12C 3.64 µM | SNB-19 18.7 µM | SNB-75 22.6 µM | UACC-257 2.84 µM

O=C(CSc1nc(=O)c(-c2ccccc2NC(=O)C(F)(F)F)n[nH]1)NC(=O)Nc1ccccc1
inactive: A549 > 100 µM | CAKI-1 48.1 µM | CCRF-CEM 94.8 µM | COLO 205 > 100 µM | HCC 2998 > 100 µM | HCT-116 > 100 µM | HOP-92 > 100 µM | NCI-H522 76.4 µM | OVCAR-5 > 100 µM | SF-268 56.6 µM | SN12C > 100 µM | SNB-19 > 100 µM | SNB-75 21.3 µM
